Test results taken from patent publication US8329904B2, “Azacyclic derivatives” (Hoffmann-La Roche Inc., priority 2009, dated 2012).

Molecular target: T1, human HSL (Homo sapiens, UniProt Q05469)
T1 construct: overlapping PCR to generate a full length human HSL ORF with a 3′-His6 tag; His6 (C); made in house; host or cells: High 5 insect cells (baculovirus, pFast-BAC)
T1 sequence (Q05469 1-1076): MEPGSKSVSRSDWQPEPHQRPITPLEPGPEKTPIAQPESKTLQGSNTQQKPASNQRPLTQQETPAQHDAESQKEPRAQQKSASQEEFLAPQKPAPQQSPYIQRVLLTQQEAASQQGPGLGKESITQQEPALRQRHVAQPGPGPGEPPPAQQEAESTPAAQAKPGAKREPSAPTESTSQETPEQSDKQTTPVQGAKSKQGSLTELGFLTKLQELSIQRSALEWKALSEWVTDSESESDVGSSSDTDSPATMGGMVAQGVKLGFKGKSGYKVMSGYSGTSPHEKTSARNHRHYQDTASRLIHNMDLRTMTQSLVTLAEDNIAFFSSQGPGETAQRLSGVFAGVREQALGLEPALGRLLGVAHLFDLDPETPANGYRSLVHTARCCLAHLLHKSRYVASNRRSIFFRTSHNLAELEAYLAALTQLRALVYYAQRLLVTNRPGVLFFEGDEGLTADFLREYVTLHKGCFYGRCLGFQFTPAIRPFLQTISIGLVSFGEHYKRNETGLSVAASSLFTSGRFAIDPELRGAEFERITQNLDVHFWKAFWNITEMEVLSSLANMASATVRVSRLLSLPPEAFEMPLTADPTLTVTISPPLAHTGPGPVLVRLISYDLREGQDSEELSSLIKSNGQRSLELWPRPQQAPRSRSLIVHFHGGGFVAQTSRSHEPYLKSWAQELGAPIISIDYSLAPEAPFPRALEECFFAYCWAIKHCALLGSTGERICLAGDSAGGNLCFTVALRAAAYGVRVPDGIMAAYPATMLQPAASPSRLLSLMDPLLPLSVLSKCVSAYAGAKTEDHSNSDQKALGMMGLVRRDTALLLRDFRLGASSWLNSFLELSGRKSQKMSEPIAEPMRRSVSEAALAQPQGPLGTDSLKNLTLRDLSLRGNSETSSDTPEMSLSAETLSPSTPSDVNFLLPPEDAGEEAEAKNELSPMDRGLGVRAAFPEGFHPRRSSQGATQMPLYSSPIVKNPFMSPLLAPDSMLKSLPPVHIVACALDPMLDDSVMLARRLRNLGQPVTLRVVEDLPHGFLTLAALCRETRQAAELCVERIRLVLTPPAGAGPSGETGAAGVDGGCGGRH
Experiment: Human Hormone-Sensitive Lipase (HSL) Enzyme Inhibition Assay
Format: biochemical
Details: colorimetric assay, 2,3-dimercapto-1-propanol tributyrate (DMPT) substrate, 37° C. for 20 minutes, absorbance at 405 nm; read-out: HSL hum IC50
Outline: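 Colorimetric thioester hydrolysis: compounds in DMSO series mixed with DMPT (1.5 mM) in MOPS pH 7.2 with BSA, then baculovirus-expressed His6-tagged full-length human HSL added, 37° C, 20 min. DTNB plus detergents added, 15 min room temperature, absorbance at 405 nm.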

| IC50 [nM] | SMILES |
| --- | --- |
| 60 | CC(C)(O)c1ccc(N2CCC3(CCN(S(=O)(=O)c4ccccc4C(F)(F)F)CC3)C2=O)cc1 [Example 174, 2-[4-(1-Hydroxy-1-methyl-ethyl)-phenyl]-8-(2-trifluoromethyl-benzenesulfonyl)-2,8-diaza-spiro[4.5]decan-1-one] |
| 110 | CN(C(=O)N1CCC2(CC1)CCN(c1ccc(OC(F)(F)F)cc1)C2=O)c1ccc(Cl)c(Cl)c1 [Example 301, 1-Oxo-2-(4-trifluoromethoxy-phenyl)-2,8-diaza-spiro[4.5]decane-8-carboxylic acid (3,4-dichloro-phenyl)-methyl-amide] |
| 150 | CCN(CCc1ccccn1)C(=O)N1CCC2(CC1)CCN(c1ccc(OC(F)(F)F)cc1)C2=O [Example 284, 1-Oxo-2-(4-trifluoromethoxy-phenyl)-2,8-diaza-spiro[4.5]decane-8-carboxylic acid ethyl-(2-pyridin-2-yl-ethyl)-amide] |
| 180 | CCCN(C)C(=O)N1CCC2(CC1)CCN(c1ccc(CC)cc1)C2=O [Example 252, 2-(4-Ethyl-phenyl)-1-oxo-2,8-diaza-spiro[4.5]decane-8-carboxylic acid methyl-propyl-amide] |
| 220 | Cc1oncc1S(=O)(=O)N1CCC2(CCN(c3ccc(OC(F)(F)F)cc3)C2=O)CC1 [Example 185, 8-(5-Methyl-isoxazole-4-sulfonyl)-2-(4-trifluoromethoxy-phenyl)-2,8-diaza-spiro[4.5]decan-1-one] |
| 140 | CN(CCc1ccccn1)C(=O)N1CCC2(CC1)CCN(c1ccc(OC(F)(F)F)cc1)C2=O [Example 283, 1-Oxo-2-(4-trifluoromethoxy-phenyl)-2,8-diaza-spiro[4.5]decane-8-carboxylic acid methyl-(2-pyridin-2-yl-ethyl)-amide] |
| 640 | CC(C)(C)CC(=O)N1CCC2(CC1)CCN(c1ccc(C(O)C(F)F)cc1)C2=O (centres unmarked) [Example 178, 2-(4-(2,2-difluoro-1-hydroxyethyl)phenyl)-8-(3,3-dimethylbutanoyl)-2,8-diazaspiro[4.5]decan-1-one] |
| 30 | CNc1ncccc1S(=O)(=O)N1CCC2(CCN(c3ccc(OC(F)(F)F)cc3)C2=O)CC1 [Example 189, 8-(2-Methylamino-pyridine-3-sulfonyl)-2-(4-trifluoromethoxy-phenyl)-2,8-diaza-spiro[4.5]decan-1-one] |
| 320 | O=C1N(c2ccc(C(O)C(F)(F)F)cc2)CCC12CCN(S(=O)(=O)C1CC1)CC2 (centres unmarked) [Example 170, 8-(Cyclopropylsulfonyl)-2-(4-(2,2,2-trifluoro-1-hydroxyethyl)phenyl)-2,8-diazaspiro[4.5]decan-1-one] |
| 80 | Cn1ccc(S(=O)(=O)N2CCC3(CCN(c4ccc(OC(F)(F)F)cc4)C3=O)CC2)n1 [Example 184, 8-(1-Methyl-1H-pyrazole-3-sulfonyl)-2-(4-trifluoromethoxy-phenyl)-2,8-diaza-spiro[4.5]decan-1-one] |
| 140 | Cc1ccc(S(=O)(=O)N2CCC3(CCN(c4ccc(OC(F)(F)F)cc4)C3=O)CC2)nn1 [Example 204, 8-(6-Methyl-pyridazine-3-sulfonyl)-2-(4-trifluoromethoxy-phenyl)-2,8-diaza-spiro[4.5]decan-1-one] |
| 110 | O=C(N1CCC2(CC1)CCN(c1ccc(OC(F)(F)F)cc1)C2=O)N1CCCc2ccccc21 [Example 281, 8-(3,4-Dihydro-2H-quinoline-1-carbonyl)-2-(4-trifluoromethoxy-phenyl)-2,8-diaza-spiro[4.5]decan-1-one] |
| 80 | CCN(C(=O)N1CCC2(CC1)CCN(c1ccc(OC(F)(F)F)cc1)C2=O)C(C)C [Example 304, 1-Oxo-2-(4-trifluoromethoxy-phenyl)-2,8-diaza-spiro[4.5]decane-8-carboxylic acid ethyl-isopropyl-amide] |

Second part, the compound before the results:

| SMILES | IC50 [nM] |
| --- | --- |
| O=C1N(c2ccc(OC(F)(F)F)cc2)CCC12CCN(S(=O)(=O)c1ccccc1)CC2 [Example 2, 8-Benzenesulfonyl-2-(4-trifluoromethoxy-phenyl)-2,8-diaza-spiro[4.5]decan-1-one] | 40 |
| O=C1N(c2ccc(OC(F)(F)F)cc2)CCC12CCN(S(=O)(=O)c1ccccc1OC(F)(F)F)CC2 [Example 55, 8-(2-Trifluoromethoxy-benzenesulfonyl)-2-(4-trifluoromethoxy-phenyl)-2,8-diaza-spiro[4.5]decan-1-one] | 20 |
| CCC(C)Oc1ccc(N2CCC3(CCN(S(=O)(=O)CC(C)C)CC3)C2=O)cc1 (centres unmarked) [Example 85, 2-(4-sec-Butoxy-phenyl)-8-(2-methyl-propane-1-sulfonyl)-2,8-diaza-spiro[4.5]decan-1-one] | 100 |
| O=C1N(c2ccc(CO)cc2)CCC12CCN(S(=O)(=O)c1ccccc1Cl)CC2 [Example 141, 8-(2-Chloro-benzenesulfonyl)-2-(4-hydroxymethyl-phenyl)-2,8-diaza-spiro[4.5]decan-1-one] | 360 |
| CC(C)(C)OCC(=O)N1CCC2(CC1)CCN(c1ccc(OC(F)(F)F)cc1)C2=O [Example 218, 8-(2-tert-Butoxy-acetyl)-2-(4-trifluoromethoxy-phenyl)-2,8-diaza-spiro[4.5]decan-1-one] | 100 |
| COCc1ccc(N2CCC3(CCN(S(=O)(=O)c4ccccc4Cl)CC3)C2=O)cc1 [Example 142, 8-(2-Chloro-benzenesulfonyl)-2-(4-methoxymethyl-phenyl)-2,8-diaza-spiro[4.5]decan-1-one] | 40 |
| Cc1noc(C)c1S(=O)(=O)N1CCC2(CCN(c3ccc(C(F)(F)F)cc3)C2=O)CC1 [Example 164, 8-(3,5-Dimethyl-isoxazole-4-sulfonyl)-2-(4-trifluoromethyl-phenyl)-2,8-diaza-spiro[4.5]decan-1-one] | 280 |
| CC(Oc1ccc(N2CCC3(CCN(S(=O)(=O)c4ccccc4)CC3)C2=O)cc1)C(F)(F)F (racemic) [Example 4, (rac)-8-Benzenesulfonyl-2-[4-(2,2,2-trifluoro-1-methyl-ethoxy)-phenyl]-2,8-diaza-piro[4.5]decan-1-one] | 20 |
| CCOCc1ccc(N2CCCC3(CCN(S(=O)(=O)c4ccccc4Cl)CC3)C2=O)cc1 [Example 159, 9-(2-Chloro-benzenesulfonyl)-2-(4-ethoxymethyl-phenyl)-2,9-diaza-spiro[5.5]undecan-1-one] | 300 |
| COC(=O)c1ccc(N2CCC3(CCN(S(=O)(=O)c4ccccc4Cl)CC3)C2=O)cc1 [Example 150, 8 4-[8-(2-Chloro-benzenesulfonyl)-1-oxo-2,8-diaza-spiro[4.5]dec-2-yl]-benzoic acid methyl ester] | 40 |
| CCc1ccc(N2CCC3(CCN(S(=O)(=O)c4ccc(C)s4)CC3)C2=O)cc1 [Example 41, 2-(4-Ethyl-phenyl)-8-(5-methyl-thiophene-2-sulfonyl)-2,8-diaza-spiro[4.5]decan-1-one] | 60 |
| O=C1N(c2ccc(C3CC3)cc2)CCC12CCN(S(=O)(=O)c1ccc(F)cc1C(F)(F)F)CC2 [Example 72, 2-(4-Cyclopropyl-phenyl)-8-(4-fluoro-2-trifluoromethyl-benzenesulfonyl)-2,8-diaza-spiro[4.5]decan-1-one] | 110 |
| O=C1N(c2ccc(Cc3nnc(C(F)(F)F)o3)cc2)CCC12CCN(S(=O)(=O)c1ccccc1Cl)CC2 [Example 138, 8-(2-Chloro-benzenesulfonyl)-2-[4-(5-trifluoromethyl-[1,3,4]oxadiazol-2-ylmethyl)-phenyl]-2,8-diaza-spiro[4.5]decan-1-one] | 530 |
| CC(Oc1ccc(N2CCC3(CCN(S(=O)(=O)c4ccccc4)CC3)C2=O)cn1)C(F)(F)F (racemic) [Example 25, (rac)-8-Benzenesulfonyl-2-[6-(2,2,2-trifluoro-1-methyl-ethoxy)-pyridin-3-yl]-2,8-diaza-spiro[4.5]decan-1-one] | 50 |
| CS(=O)(=O)Oc1ccc(N2CCC3(CCN(S(=O)(=O)c4ccccc4Cl)CC3)C2=O)cc1 [Example 48, Methanesulfonic acid 4-[8-(2-chloro-benzenesulfonyl)-1-oxo-2,8-diaza-spiro[4.5]dec-2-yl]-phenyl ester] | 30 |
| CC(C)Oc1ccc(N2CCC3(CCN(S(=O)(=O)c4ccccc4)CC3)C2=O)cc1 [Example 6, 8-Benzenesulfonyl-2-(4-isopropoxy-phenyl)-2,8-diaza-spiro[4.5]decan-1-one] | 40 |
